Literature values as cited in patent publication US20220184095A1 (Mylan Specialty L.P., priority 2019, published 2022).

Details: orally delivered, humans

Cc1cnc(NC(=O)C2=C(O)c3ccccc3S(=O)(=O)N2C)s1 [meloxicam, 4-hydroxy-2-methyl-N-(5-methyl-2-thiazolyl)-2H-1,2-benzothiazine-3-carboxamide-1,1-dioxide]
Tmax (time to reach maximum concentration): 4 to 6 h
time to reach the therapeutic concentration that enables the onset of action: 2 to 3 h
